Calls of active or inactive are those of the source.
What was measured:
[1] = biological target: T1, Mannose-6-phosphate isomerase (Homo sapiens, UniProt P34949); assay: human PMI inhibitors, high substrate, primary screen, biochemical, fluorescence intensity, high mannose 6-phosphate (AID 1220)
T1 sequence (P34949 whole entry): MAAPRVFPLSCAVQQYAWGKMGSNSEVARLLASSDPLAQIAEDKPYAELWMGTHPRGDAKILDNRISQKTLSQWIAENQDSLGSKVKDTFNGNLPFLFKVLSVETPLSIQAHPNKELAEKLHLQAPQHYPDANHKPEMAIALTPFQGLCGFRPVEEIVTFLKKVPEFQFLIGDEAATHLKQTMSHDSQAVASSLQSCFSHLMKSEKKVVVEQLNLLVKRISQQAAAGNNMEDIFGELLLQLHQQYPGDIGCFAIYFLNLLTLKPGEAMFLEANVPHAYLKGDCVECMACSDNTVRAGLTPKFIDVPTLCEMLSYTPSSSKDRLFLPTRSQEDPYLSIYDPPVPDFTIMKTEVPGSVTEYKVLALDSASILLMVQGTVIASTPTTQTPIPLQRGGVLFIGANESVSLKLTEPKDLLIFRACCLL

Prothrombin = Prothrombin (Homo sapiens, UniProt P00734); assay: Thrombin 1536 HTS Dose Response Confirmation. [Related pubchem assays: 1046 (Thrombin 1536 HTS; hits were confirmed in this assay)]; format: functional
[2] = biological target: T2, Polyadenylate-binding protein 1 (Homo sapiens, UniProt P11940); assay: PABP1 MLLE–PAM2 binding inhibitor potency, dose response, biochemical, fluorescence polarization, FITC-PAM2 peptide (AID 602259); format: functional; conditions: read-out: IC50_Mean
T2 sequence (P11940 whole entry): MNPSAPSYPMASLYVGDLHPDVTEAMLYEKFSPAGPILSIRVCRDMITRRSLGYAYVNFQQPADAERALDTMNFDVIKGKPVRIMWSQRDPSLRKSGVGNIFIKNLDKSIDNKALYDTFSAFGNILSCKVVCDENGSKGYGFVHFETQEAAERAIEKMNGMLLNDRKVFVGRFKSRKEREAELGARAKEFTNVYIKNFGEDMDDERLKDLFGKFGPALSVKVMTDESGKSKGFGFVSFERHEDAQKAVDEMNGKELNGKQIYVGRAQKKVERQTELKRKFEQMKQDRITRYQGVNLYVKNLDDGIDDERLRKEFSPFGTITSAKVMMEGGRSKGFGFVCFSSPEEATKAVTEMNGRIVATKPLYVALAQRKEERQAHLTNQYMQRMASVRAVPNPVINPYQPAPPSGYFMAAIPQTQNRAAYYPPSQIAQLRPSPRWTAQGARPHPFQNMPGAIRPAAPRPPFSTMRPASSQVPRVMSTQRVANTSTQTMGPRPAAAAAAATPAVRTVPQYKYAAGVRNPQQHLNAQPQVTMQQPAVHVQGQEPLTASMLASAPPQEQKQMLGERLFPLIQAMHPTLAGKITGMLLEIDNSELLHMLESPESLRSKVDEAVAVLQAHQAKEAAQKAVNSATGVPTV

[3] = biological target: Glucose-6-phosphate 1-dehydrogenase (Homo sapiens, UniProt P11413); assay: human G6PD enzyme inhibitors, dose response, selectivity assay for P. falciparum G6PD inhibitor project, biochemical, fluorescence (AID 504792); format: functional
Glucose-6-phosphate 1-dehydrogenase, sequence (P11413 whole entry): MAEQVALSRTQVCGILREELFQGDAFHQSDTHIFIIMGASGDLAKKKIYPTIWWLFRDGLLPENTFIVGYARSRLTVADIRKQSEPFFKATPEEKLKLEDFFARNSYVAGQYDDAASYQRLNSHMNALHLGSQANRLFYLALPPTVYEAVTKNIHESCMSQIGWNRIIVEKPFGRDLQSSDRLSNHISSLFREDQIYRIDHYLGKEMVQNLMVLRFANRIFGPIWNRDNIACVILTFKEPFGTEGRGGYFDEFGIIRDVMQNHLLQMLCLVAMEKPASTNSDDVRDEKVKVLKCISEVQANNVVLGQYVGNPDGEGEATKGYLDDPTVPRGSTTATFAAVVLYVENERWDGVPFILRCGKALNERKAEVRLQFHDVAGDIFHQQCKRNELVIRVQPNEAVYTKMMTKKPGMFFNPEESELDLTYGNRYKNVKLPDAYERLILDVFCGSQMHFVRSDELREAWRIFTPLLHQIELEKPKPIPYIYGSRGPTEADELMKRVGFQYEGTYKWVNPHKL

[4] = biological target: T2, Polyadenylate-binding protein 1; assay: PABP1 MLLE–PAM2 interaction inhibitors, dose response, miRNA deadenylation inhibitor project, biochemical, fluorescence polarization, Cy5-PAM2 peptide, secondary (AID 602260); format: functional; conditions: read-out: IC50_Mean
[5] = A cytotoxicity screen of small molecule inhibitors of the PhoP region in Salmonella typhi identified in the primary screen. [Related pubchem assays: 1850, 1864, 1985 ]; format: functional
[6] = P. falciparum late gametocyte killing, dose response, luminescence (AID 1117278); format: functional, cell-based;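 also: gametocytes exposed to compound for 24 hours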
[7] = Jurkat T cell cytotoxicity, dose response, cytotoxicity control for P. falciparum gametocyte viability project, luminescence (AID 1117277); format: functional, cell-based;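 also: potency reflects loss of cellular ATP meaning fewer viable cells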
[8] = biological target: T3, Calpain-2 catalytic subunit (Sus scrofa, UniProt P43367); assay: pig calpain II inhibitor potency, dose response, biochemical, fluorogenic peptide substrate (AID 1420); format: functional
T3 sequence (P43367 whole entry): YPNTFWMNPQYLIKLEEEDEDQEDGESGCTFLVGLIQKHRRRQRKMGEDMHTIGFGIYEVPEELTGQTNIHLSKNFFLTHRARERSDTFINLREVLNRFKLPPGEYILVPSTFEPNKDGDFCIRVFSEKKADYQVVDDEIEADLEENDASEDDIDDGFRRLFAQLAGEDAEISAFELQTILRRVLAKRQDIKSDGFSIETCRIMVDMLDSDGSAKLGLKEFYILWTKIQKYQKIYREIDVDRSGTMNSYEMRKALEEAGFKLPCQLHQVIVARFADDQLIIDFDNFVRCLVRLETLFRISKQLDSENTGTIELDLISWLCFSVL

With CCOC(=O)C1CCN(Cc2c(O)ccc3ccccc23)CC1 the IC50 [1] was > 50 µM (not active).

For Cn1nnc(CC[N+](C)(C)C)n1, the IC50 (Prothrombin) was > 50 µM (not active).

With Cc1ccc(-c2nc(N)s[n+]2-c2ccccc2)cc1 the IC50 [1] was 4.91 µM (active), the IC50 [2] was > 66 µM (inactive) and the IC50 [3] was 27.2 µM (inactive). The IC50 [4] was > 66 µM (inactive).

With Cc1nc(-c2ccc(C(=O)N3CCOCC3)cc2)cs1 the EC50 [5] was > 50 µM (active), the IC50 [6] was > 109 µM (inactive) and the IC50 [7] was > 83.3 µM (inactive).

In the case of Cc1ccc(C(=O)N2C(CC(=O)Nc3ccc(Cl)cc3)C(=O)NC3CCCCC32)cc1 (stereo not drawn), the IC50 (Prothrombin) is reported as 3.25 µM (active).

For O=C(COc1ccc([N+](=O)[O-])cc1)Nc1ccc(CN2CCOCC2)cc1, the IC50 [8] was 41.1 µM (not active).

For COc1ccc(/C=C/c2c(-c3ccc(OC)cc3)oc3cccnc23)cc1, the IC50 [6] was > 109 µM (inactive) and the IC50 [7] was > 83.3 µM (inactive).
